Test results: the NIST ThermoML archive (doi:10.1016/j.jct.2015.06.024)

Test: mn = molality of the nth substance listed, in mol/kg
Settings: 84.5 kPa, Liquid; for speed of sound: Frequency=3 MHz, Sing-around technique in a fixed-path interferometer; for mass density: Vibrating tube method

CCO [ethanol] + O
Settings | mass density, 288.15 K [kg/m3] | mass density, 293.15 K [kg/m3] | mass density, 298.15 K [kg/m3] | mass density, 303.15 K [kg/m3] | mass density, 308.15 K [kg/m3] | speed of sound, 288.15 K [m/s] | speed of sound, 293.15 K [m/s] | speed of sound, 298.15 K [m/s] | speed of sound, 303.15 K [m/s] | speed of sound, 308.15 K [m/s]
m1 = 0.02159 | 998.9 | 998.003 | 996.845 | 995.446 | 993.829 | 1467.4 | 1483.4 | 1497.5 | 1509.8 | 1520.4
m1 = 0.04347 | 998.707 | 997.81 | 996.654 | 995.257 | 993.639 | 1468.2 | 1484.2 | 1498.2 | 1510.5 | 1521
m1 = 0.06495 | 998.526 | 997.632 | 996.474 | 995.076 | 993.46 | 1469.1 | 1485 | 1498.9 | 1511.1 | 1521.6
m1 = 0.08646 | 998.318 | 997.424 | 996.265 | 994.87 | 993.243 | 1470 | 1485.8 | 1499.7 | 1511.7 | 1522.2
m1 = 0.1087 | 998.132 | 997.24 | 996.081 | 994.683 | 993.05 | 1470.8 | 1486.5 | 1500.4 | 1512.4 | 1522.8
m1 = 0.1306 | 997.942 | 997.051 | 995.892 | 994.494 | 992.873 | 1471.7 | 1487.3 | 1501.1 | 1513 | 1523.3
m1 = 0.1749 | 997.562 | 996.671 | 995.508 | 994.111 | 992.498 | 1473.4 | 1488.9 | 1502.5 | 1514.2 | 1524.4
m1 = 0.2188 | 997.195 | 996.303 | 995.144 | 993.747 | 992.123 | 1475 | 1490.4 | 1503.8 | 1515.5 | 1525.5
